Data reported in patent US12414955B2 (priority 2020, dated 2025).
Where “and” joins values, the source holds several entries; their conditions need not be identical. Identical values can stand only once.

Legend:
SARS-CoV-2 = experiment: microbe, parasite or virus in culture; type: cell-based; conditions: Severe acute respiratory syndrome coronavirus 2, A549, 48 h; read-out: IC50 for inhibition of SARS CoV-2 mediated cell killing
in vitro [1] = conditions: African green monkey
in vitro [2] = conditions: African green monkey; remark: listed apart in the source
SARS CoV-1 = experiment: organism not typed; type: cell-based, Toronto 2 SARS CoV-1; conditions: for average plate ZIP synergy score / maximum ZIP synergy score / concentrations at which synergy was realized: SARS CoV-1 CPE assay
SARS CoV-2 = SARS CoV-2 cytopathic effect (CPE) assay in Vero E6 host cells; type: cell-based, USA_WA1/2020 SARS CoV-2
[3] = Compound 1 in combination with hydroxychloroquine (HCQ)
[4] = Compound 1 in combination with remdesivir
[5] = combination of Compound 1 and hydroxychloroquine (HCQ)
[6] = combination of Compound 1 and remdesivir

Row | Compound | IC50 (SARS-CoV-2) [µM] | CC50 (in vitro [1]) [µM] | CC50 (in vitro [2]) [µM] | further results
1 | C[C@@H]1COCCN1c1cc(N2CCC[C@@H]2C(F)(F)F)[nH]c(=O)c1 [Compound 3] | > 30 | > 30 | > 30 | 
2 | C[C@@H]1COCCN1c1cc(N2CCCC[C@@H]2C(F)(F)F)[nH]c(=O)c1 [Compound 1] | 0.108 | > 30 | > 30 | average plate ZIP synergy score (SARS CoV-1; [3]): 13.413; maximum ZIP synergy score (SARS CoV-1; [3]): 37.77; average plate ZIP synergy score (SARS CoV-1; [4]): 8.304; maximum ZIP synergy score (SARS CoV-1; [4]): 33.66; IC50 (SARS CoV-1; Vero C1008, 72 h, read-out: IC50 for inhibition of SARS CoV-1 mediated cell killing): 0.65 µM; concentrations at which synergy was realized (SARS CoV-1; [5]): ≤ 1.9 µM; concentrations at which synergy was realized (SARS CoV-1; [6]): ≤ 1.9 µM; average plate ZIP synergy score (SARS CoV-2): 5.523 and 8.345; maximum ZIP synergy score (SARS CoV-2): 32.8 and 40.8
3 | CCN(CCO)CCCC(C)Nc1ccnc2cc(Cl)ccc12 (stereo not drawn) [HCQ, hydroxychloroquine, reference compound] |  |  |  | concentrations at which synergy was realized (SARS CoV-1; [5]): > 0.1 µM
4 | C[C@@H]1COCCN1c1cc(N2CCCC[C@@H]2c2ccccc2)[nH]c(=O)c1 [Compound 2] | 2.03 | > 30 | > 30 | 
5 | C[C@@H]1COCCN1c1cc(N2CCOCC23CCC3)[nH]c(=O)c1 [Compound 5] | 7.73 | > 10 | > 10 | 
6 | C[C@@H]1COCCN1c1cc(N2CCOC[C@H]2C(F)(F)F)[nH]c(=O)c1 [Compound 4] | 0.52 | > 30 | > 30 | 
7 | CCC(CC)COC(=O)[C@H](C)N[P@](=O)(OC[C@H]1O[C@@](C#N)(c2ccc3c(N)ncnn23)[C@H](O)[C@@H]1O)Oc1ccccc1 [Remdesivir, remdesivir, reference compound] |  |  |  | concentrations at which synergy was realized (SARS CoV-1; [6]): > 1.9 µM; concentrations at which synergy was realized (SARS CoV-2): above 0.5 μM
